Laboratory results taken from US12157730B2, “Heteroaryl derivative, method for producing same, and pharmaceutical composition comprising same as effective component” (VORONOI INC., priority 2019, dated 2024).

Biological target: T1, Ba/F3 cell EGFR Exon20 ins NPH (Homo sapiens, UniProt P00533, INS773NPH)
T1 construct: expressed in transfected cells; host or cells: Ba/F3
Test: Ba/F3 cell proliferation suppression, EGFR Exon20 ins NPH
Assay type: cell-based
Conditions: GI50 class; Ba/F3 cell line with NPH inserted at Exon20 of EGFR; 72 hours
Method in brief: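 Growth suppression determined as GI50 following 72 h exposure across 12 concentrations up to 50 um, with viability by luminescent ATP assay (CellTiter-Glo).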

| SMILES | Ba/F3 (NPH) Activity |
| --- | --- |
| C=CC(=O)Nc1cc(Nc2cc(N3OCC[C@@H]3c3cc(F)cc(F)c3)ncn2)c(OC)cc1N1CCC(N2CC[C@@H](CN(C)C)C2)CC1 [compound 626, N-(5-((6-((R)-3-(3,5-difluorophenyl)isoxazolidine-2-yl)pyrimidine-4-yl)amino)-2-(4-((S)-3-((dimethylamino)methyl)pyrolidine-1-yl)piperidine-1-yl)-4-methoxyphenyl) acrylamide] | A (GI50 < 50 nM) |
| C=CC(=O)Nc1cc(Nc2cc(N3OCC[C@@H]3c3ccc(C)nc3)ncn2)c(OC)cc1N1CCN(C(C)=O)CC1 [Example 49, N-(2-(4-acetylpiperazine-1-yl)-4-methoxy-5-((6-((R)-3-(6-methylpyridine-3-yl)isoxazolidine-2-yl)pyrimidine-4-yl)amino)phenyl) acrylamide] | C (500 nM ≤ GI50 < 5000 nM) |
| C=CC(=O)Nc1cc(Nc2cc(N3OCC[C@@H]3c3cccc(OC)c3)ncn2)c(OC)cc1N1CCC(N2CCN(C(C)C)CC2)CC1 [compound 780, N-(2-(4-(4-isopropylpiperazine-1-yl)piperidine-1-yl)-4-methoxy-5-((6-((R)-3-(3-methoxyphenyl)isoxazolidine-2-yl)pyrimidine-4-yl)amino)phenyl)acrylamide] | B (50 nM ≤ GI50 < 500 nM) |
| C=CC(=O)Nc1cc(Nc2cc(N3OCC[C@@H]3Cc3ccccc3)ncn2)c(OC)cc1N1CCN(C2COC2)CC1 [compound 958, N-(5-((6-((S)-3-benzylisoxazolidine-2-yl)pyrimidine-4-yl)amino)-4-methoxy-2-(4-(oxetane-3-yl)piperazine-1-yl)phenyl)acrylamide] | A (GI50 < 50 nM) |
| C=CC(=O)Nc1cc(Nc2cc(N3OCC[C@@H]3Cc3ccccc3)ncn2)c(OC)cc1N(C)CCN(C)C [compound 947, N-(5-((6-((S)-3-benzylisoxazolidine-2-yl)pyrimidine-4-yl)amino)-2-((2-(dimethylamino)ethyl)(methyl)amino)-4-methoxyphenyl) acrylamide] | A (GI50 < 50 nM) |
| C#Cc1cccc([C@H]2CCON2c2cc(Nc3cc(NC(=O)C=C)c(N4CCC(N5CCN(CC=C)CC5)CC4)cc3OC)ncn2)c1 [Example 216, N-(2-(4-(4-allylpiperazine-1-yl)piperidine-1-yl)-5-((6-((R)-3-(3-ethynylphenyl)isoxazolidine-2-yl)pyrimidine-4-yl)amino)-4-methoxyphenyl) acrylamide] | A (GI50 < 50 nM) |
| C=CC(=O)Nc1cc(Nc2cc(N3OCC[C@@H]3c3cccc(F)c3)ncn2)c(OC)cc1N1CCN(C(C)=O)CC1 [compound 831, N-(2-(4-acetylpiperazine-1-yl)-5-((6-((R)-3-(3-fluorophenyl)isoxazolidine-2-yl)pyrimidine-4-yl)amino)-4-methoxyphenyl) acrylamide] | A (GI50 < 50 nM) |
| C=CC(=O)Nc1cc(Nc2cc(N3OCC[C@@H]3c3cc(F)cc(Cl)c3)ncn2)c(OC)cc1N1CCC(N2C[C@H]3C[C@@H]2CO3)CC1 [compound 590, N-(2-(4-((1R,4R)-2-oxa-5-azabicyclo[2.2.1]heptane-5-yl)piperidine-1-yl)-5-((6-((R)-3-(3-chloro-5-fluorophenyl)isoxazolidine-2-yl)pyrimidine-4-yl)amino)-4-methoxyphenyl) acrylamide] | A (GI50 < 50 nM) |
| C=CC(=O)Nc1cc(Nc2cc(N3OCC[C@H]3Cc3ccccn3)ncn2)c(OC)cc1N1CCC(N2CCN(C3CC3)CC2)CC1 [compound 1058, N-(2-(4-(4-cyclopropylpiperazine-1-yl)piperidine-1-yl)-4-methoxy-5-((6-((R)-3-(pyridine-2-ylmethyl)isoxazolidine-2-yl)pyrimidine-4-yl)amino)phenyl)acrylamide] | C (500 nM ≤ GI50 < 5000 nM) |
| C=CC(=O)Nc1cc(Nc2cc(N3OCC[C@@H]3c3cc(F)cc(F)c3)ncn2)c(OC)cc1N1CC[C@@H](CN(C)C)C1 [compound 625, N-(5-((6-((R)-3-(3,5-difluorophenyl)isoxazolidine-2-yl)pyrimidine-4-yl)amino)-2-((S)-3-((dimethylamino)methyl)pyrolidine-1-yl)-4-methoxyphenyl) acrylamide] | A (GI50 < 50 nM) |
| C=CC(=O)Nc1cc(Nc2cc(N3OCC[C@@]3(C)c3ccccc3)ncn2)c(OC)cc1N1CCC(N2C[C@H]3C[C@@H]2CO3)CC1 [Example 269, N-(2-(4-((1R,4R)-2-oxa-5-azabicyclo[2.2.1]heptane-5-yl)piperidine-1-yl)-4-methoxy-5-((6-((S)-3-methyl-3-phenylisoxazolidine-2-yl)pyrimidine-4-yl)amino)phenyl) acrylamide] | C (500 nM ≤ GI50 < 5000 nM) |

Results, then the compound that gave them:

| Ba/F3 (NPH) Activity | SMILES |
| --- | --- |
| C (500 nM ≤ GI50 < 5000 nM) | C=CC(=O)Nc1cc(Nc2cc(N3OCC[C@H]3c3c(F)cccc3F)ncn2)c(OC)cc1N1CCC(N2CC[C@@H](N(C)C)C2)CC1 [compound 314, N-(5-((6-((S)-3-(2,6-difluorophenyl)isoxazolidine-2-yl)pyrimidine-4-yl)amino)-2-(4-((R)-3-(dimethylamino)pyrolidine-1-yl)piperidine-1-yl)-4-methoxyphenyl) acrylamide] |
| A (GI50 < 50 nM) | C=CC(=O)Nc1cc(Nc2cc(N3OCC[C@@H]3c3cc(F)ccc3F)ncn2)c(OC)cc1N1CCN(C2CC2)C[C@H]1C [compound 880, N-(2-((R)-4-cyclopropyl-2-methylpiperazine-1-yl)-5-((6-((R)-3-(2,5-difluorophenyl)isoxazolidine-2-yl)pyrimidine-4-yl)amino)-4-methoxyphenyl) acrylamide] |
| A (GI50 < 50 nM) | C=CC(=O)Nc1cc(Nc2cc(N3OCC[C@@H]3c3ccc(F)c(Cl)c3F)ncn2)c(OC)cc1N1CCC(N(C)C)CC1 [compound 638, N-(5-((6-((R)-3-(3-chloro-2,4-difluorophenyl)isoxazolidine-2-yl)pyrimidine-4-yl)amino)-2-(4-(dimethylamino)piperidine-1-yl)-4-methoxyphenyl) acrylamide] |
| A (GI50 < 50 nM) | C=CC(=O)Nc1cc(Nc2cc(N3OCC[C@@H]3c3ccc(Cl)c(Cl)c3F)ncn2)c(OC)cc1N1CCC(N2CCN(C(C)C)CC2)CC1 [compound 804, N-(5-((6-((R)-3-(3,4-dichloro-2-fluorophenyl)isoxazolidine-2-yl)pyrimidine-4-yl)amino)-2-(4-(4-isopropylpiperazine-1-yl)piperidine-1-yl)-4-methoxyphenyl) acrylamide] |
| A (GI50 < 50 nM) | C=CC(=O)Nc1cc(Nc2cc(N3OCC[C@@H]3c3cccc(F)c3Cl)ncn2)c(OC)cc1N1CCC(N2C[C@@H]3CCN(C)[C@@H]3C2)CC1 [compound 448, N-(5-((6-((R)-3-(2-chloro-3-fluorophenyl)isoxazolidine-2-yl)pyrimidine-4-yl)amino)-4-methoxy-2-(4-((3aS,6aS)-1-methylhexahydropyrrolo [3,4-b]pyrrole-5(1H)-yl)piperidine-1-yl)phenyl)acrylamide] |
| A (GI50 < 50 nM) | C=CC(=O)Nc1cc(Nc2cc(N3OCC[C@@H]3c3ccc(F)c(F)c3)ncn2)c(OC)cc1N1CCC(N2CCN(C(C)=O)CC2)CC1 [compound 544, N-(2-(4-(4-acetylpiperazine-1-yl)piperidine-1-yl)-5-((6-((R)-3-(3,4-difluorophenyl)isoxazolidine-2-yl)pyrimidine-4-yl)amino)-4-methoxyphenyl) acrylamide] |
| A (GI50 < 50 nM) | C=CC(=O)Nc1cc(Nc2cc(N3OCC[C@@H]3c3cc(F)cc(F)c3)ncn2)c(OC)cc1N1CCC(N2CCO[C@@H](C)C2)CC1 [compound 757, N-(5-((6-((R)-3-(3,5-difluorophenyl)isoxazolidine-2-yl)pyrimidine-4-yl)amino)-4-methoxy-2-(4-((S)-2-methylmorpholino)piperidine-1-yl)phenyl) acrylamide] |
| A (GI50 < 50 nM) | C=CC(=O)Nc1cc(Nc2cc(N3OCC[C@@H]3c3cc(F)cc(Cl)c3)ncn2)c(OC)cc1N1CCC(N2CCN(C3CC3)C[C@@H]2C)CC1 [Example 160, N-(5-((6-((R)-3-(3-chloro-5-fluorophenyl)isoxazolidine-2-yl)pyrimidine-4-yl)amino)-2-(4-((S)-4-cyclopropyl-2-methylpiperazine-1-yl)piperidine-1-yl)-4-methoxyphenyl) acrylamide] |
| B (50 nM ≤ GI50 < 500 nM) | C#Cc1cccc([C@H]2CCON2c2cc(Nc3cc(NC(=O)C=C)c(N4CCC(N5CCC(N(C)C)CC5)CC4)cc3OC)ncn2)c1 [compound 655, N-(2-(4-(dimethylamino)-[1,4'-bipiperidine]-1'-yl)-5-((6-((R)-3-(3-ethynylphenyl)isoxazolidine-2-yl)pyrimidine-4-yl)amino)-4-methoxyphenyl) acrylamide] |
| A (GI50 < 50 nM) | C=CC(=O)Nc1cc(Nc2cc(N3OCC[C@@H]3c3cccc(F)c3Cl)ncn2)c(OC)cc1N1CCC(N2C[C@H]3CCN(C)[C@H]3C2)CC1 [compound 447, N-(5-((6-((R)-3-(2-chloro-3-fluorophenyl)isoxazolidine-2-yl)pyrimidine-4-yl)amino)-4-methoxy-2-(4-((3aR,6aR)-1-methylhexahydropyrrolo [3,4-b]pyrrole-5(1H)-yl)piperidine-1-yl)phenyl)acrylamide] |
| A (GI50 < 50 nM) | C=CC(=O)Nc1cc(Nc2cc(N3OCC[C@@H]3c3cccc(Cl)c3F)ncn2)c(OC)cc1N1CCC(N2CCN(C3CC3)[C@H](C)C2)CC1 [Example 180, N-(5-((6-((R)-3-(3-chloro-2-fluorophenyl)isoxazolidine-2-yl)pyrimidine-4-yl)amino)-2-(4-((R)-4-cyclopropyl-3-methylpiperazine-1-yl)piperidine-1-yl)-4-methoxyphenyl) acrylamide] |
